Data as given in article PMC5509550, “Development of a Novel Lead that Targets M. tuberculosis Polyketide Synthase 13” (Cell, 2017).
Converted amounts (≈) assume the structure as drawn.

Key:
[1] = test system: Mtb mc^27000; assay type: cell-based, Mycobacterium tuberculosis
[2] = test system: TAM16-resistant Mtb mutants (Pks13 D1644G or D1644Y); assay type: cell-based, Mycobacterium tuberculosis

| SMILES | frequency of resistance observed for INH [1] | MIC against TAM16-resistant mutants [2] |
| --- | --- | --- |
| NNC(=O)c1ccncc1 [INH, Isoniazid] | 1 × 10^−6 | 0.2 µM (≈ 0.0274 µg/mL) |
| CO[C@H]1/C=C/O[C@@]2(C)Oc3c(C)c(O)c4c(O)c(c(/C=N/N5CCN(C)CC5)c(O)c4c3C2=O)NC(=O)/C(C)=C\C=C\[C@H](C)[C@H](O)[C@@H](C)[C@@H](O)[C@@H](C)[C@H](OC(C)=O)[C@@H]1C [RIF, Rifampicin] |  | 0.04 µM (≈ 0.0329 µg/mL) |
